Assay results taken from patent publication US8058276B2, “Heterobicyclic carboxamides as inhibitors for kinases” (Novartis AG, priority 2006, dated 2011).

SMILES | melting point [°C]
Nc1nccc(Oc2ccc3c(C(=O)Nc4cccc(C(F)(F)F)c4)cnn3c2)n1 [Example 15, 6-(2-Amino-pyrimidin-4-yloxy)-pyrazolo[1,5-a]pyridine-3-carboxylic acid (3-trifluoromethyl-phenyl)-amide] | 102 to 104
O=C(Nc1cccc(C(F)(F)F)c1)c1coc2cc(Oc3cc(CO)ncn3)ccc12 [Example 22, 6-(6-Hydroxymethyl-pyrimidin-4-yloxy)-benzofuran-3-carboxylic acid (3-trifluoromethyl-phenyl)-amide] | 181 to 182
CN1CCN(Cc2ccc(NC(=O)c3nsc4cc(Oc5ccnc(N)n5)ccc34)cc2C(F)(F)F)CC1 [Example 7, 6-(2-Amino-pyrimidin-4-yloxy)-benzo[d]isothiazole-3-carboxylic acid [4-(4-methyl-piperazin-1-ylmethyl)-3-trifluoromethyl-phenyl]-amide] | 215 to 217
Nc1nccc(Oc2ccc3c(C(=O)Nc4ccc(F)c(C(F)(F)F)c4)nsc3c2)n1 [Example 6, 6-(2-Amino-pyrimidin-4-yloxy)-benzo[d]isothiazole-3-carboxylic acid (4-fluoro-3-trifluoromethyl-phenyl)-amide] | 237 to 239
O=C(Nc1ccc(F)c(C(F)(F)F)c1)c1csc2cc(Oc3cc(CO)ncn3)ccc12 [Example 19, 6-(6-Hydroxymethyl-pyrimidin-4-yloxy)-benzo[b]thiophene-3-carboxylic acid (4-fluoro-3-trifluoromethyl-phenyl)-amide] | 138 to 140
